Where two headings read alike, the source gives them in different places.
Assays:
RSV A2 strain = assay: In vitro CPE (CytoPathic Effect) inhibition effect evaluation test, RSV type A; format: cell-based; conditions: inhibitory effect against RSV type A (RSV A2 strain), HEp-2 cells, CPE inhibition, read-out: EC50
Procedure, shortened: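 EC50 is the concentration giving 50% inhibition of virus-induced cytopathic effect, fitted by nonlinear regression from CellTiter-Glo 2.0 viability. Compounds in 3-fold series were co-incubated at 37 °C with HEp-2 cells and RSV: A2 strain for 4 days, B (Wash/18537) for 5 days; uninfected wells served as control.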

[1] = system: RSV B (Wash/18537 strain); assay: In vitro CPE (CytoPathic Effect) inhibition effect evaluation test, RSV type B; format: cell-based; conditions: inhibitory effect against RSV type B, CPE inhibition, read-out: EC50
Description: The test sample is diluted in advance to an appropriate concentration with DMSO, and 3-fold series of serial dilutions were prepared on a 384-well plate (0.32 μL/well). HEp-2 cells (CCL-23; ATCC) adjusted at appropriate number (2.4×10^5 cells/mL) in 2% FBS E-MEM (prepared by adding kanamycin and FBS to Eagle's Minimum Essential Medium; Invitrogen) were added at 12.5 μL/well to the 384-well plate previously aliquoted with the test samples. The RSV A2 strain was diluted to an appropriate concentration in a culture medium and added to the 384-well plate containing the test sample at 12.5 μL/well. The culture medium was added additionally to the 384-well plate, and the test was started with 50 μL/well. Control wells were prepared with only virus-free culture medium. The plate was incubated in a 5% CO2 incubator at 37° C. for 4 days, and the plate was then placed at room temperature for 30 minutes. CellTiter-Glo (registered trademark) 2.0 assay (Promega) was added at 15 μL/well, mixed for 30 seconds, and the plate was placed for approximately 1 hour. The luminescent signal was then measured by EnVision (PerkinElmer). The inhibitory effect of the test agents on RSV-induced CPE was calculated as 0% and 100% inhibition rate for each sample concentration based on the level of remaining viable cells by CellTiter-Glo (registered trademark) 2.0, with the EC50 value for each compound calculated by nonlinear regression as the concentration that inhibits RSV-induced CPE by 50%. In the case of evaluation against RSV type B, RSV B (Wash/18537 strain) was infected in the same manner as the type A, cultured for 5 days, and quantitated in the same manner as for the A2 strain.

[2] = human respiratory syncytial virus

| Structure (SMILES) | EC50 (RSV A2 strain) | EC50 [1] | EC50 (RSV A2 strain; [2]) | EC50 [1, 2] |
| --- | --- | --- | --- | --- |
| O=C(NC1(C(=O)O)C2CC3CC(C2)CC1C3)c1cnc(-c2cn(C3CCC(F)(F)CC3)c3cc(OC4CC(N5CC(F)(F)C5)C4)ccc23)nc1C(F)(F)F (single isomer, unassigned) [Compound I-413] | < 10 nM | 10 to 100 nM |  |  |
| CC(F)(F)c1nc(N2CC3(CCOCC3)c3cc(OC4CCN(c5ncc(F)cn5)CC4)ncc32)ncc1C(=O)NC1(C(=O)O)C2CC3CC(C2)CC1C3 (stereo not shown) [Compound I-503] |  |  | < 10 nM | < 10 nM |
| CC(F)(F)c1nc(-c2cn(C3CCC(F)CC3)c3cc(O[C@H]4CC[C@H](N5CC(F)(F)C5)CC4)ccc23)ncc1C(=O)NC1(C(=O)O)C2CC3CC(C2)CC1C3 (single isomer, unassigned) [Compound I-568] |  |  | < 10 nM | < 10 nM |
| O=C(NC1(C(=O)O)C2CC3CC(C2)CC1C3)c1ccc(-c2cn(C3CCC(F)(F)CC3)c3c(F)c(OC4CCN(c5ncccn5)CC4)ccc23)nc1C(F)(F)F (stereo not shown) [Compound I-227] |  |  | < 10 nM | < 10 nM |
| O=C(NC1(C(=O)O)C2CC3CC(C2)CC1C3)c1cnc(-c2cn(C3CCC(F)(F)CC3)c3cc(OC4CCN(CC5(F)COC5)CC4)ccc23)nc1C(F)(F)F (stereo not shown) [Compound I-429] |  |  | < 10 nM | 10 to 100 nM |
| COc1cnc(N2CCC(Oc3ccc4c(c3)C3(CCCCC3)CN4c3ncc(C(=O)NC4(C(=O)O)C5CC6CC(C5)CC4C6)c(C(F)(F)F)n3)CC2)nc1 (stereo not shown) [Compound I-522] |  |  | < 10 nM | < 10 nM |
| O=C(NC1(C(=O)O)C2CC3CC(C2)CC1C3)c1cnc(N2CCc3cc(OCCN4CCOCC4)ccc32)nc1C(F)(F)F (stereo not shown) [Compound I-31] |  |  | < 10 nM | 10 to 100 nM |
| O=C(NC1(C(=O)O)C2CC3CC(C2)CC1C3)c1cnc(-c2cn(C3CCC4(CC3)COC4)c3cc(OC4CCN(c5ncc(F)cn5)CC4)ccc23)nc1C(F)(F)F (stereo not shown) [Compound I-437] |  |  | < 10 nM | < 10 nM |
| CC(F)(F)c1nc(N2CC3(CCOCC3)c3cc(OC4CCN(CC#N)CC4)ccc32)ncc1C(=O)NC1(C(=O)O)C2CC3CC(C2)CC1C3 (stereo not shown) [Compound I-528] |  |  | < 10 nM | 100 to 5000 nM |
| O=C(NC1(C(=O)O)C2CC3CC(C2)CC1C3)c1cnc(N2CC3(CCCCC3)c3cc(OC4CC5(CCN(CC(F)(F)F)CC5)C4)ccc32)nc1C(F)(F)F (stereo not shown) [Compound I-473] |  |  | < 10 nM | 100 to 5000 nM |
| O=C(NC1(C(=O)O)C2CC3CC(C2)CC1C3)c1cnc(-c2cn(C3CCOCC3)c3cc(O[C@H]4CC[C@H](N5CC(F)(F)C5)CC4)ccc23)nc1C(F)(F)F (stereo partly shown) [Compound I-499] |  |  | < 10 nM | < 10 nM |
| CC(F)(F)c1nc(N2CC3(CCCC3)c3cc(O[C@@H]4CCN(CC(F)(F)F)C4)ccc32)ncc1C(=O)NC1(C(=O)O)C2CC3CC(C2)CC1C3 (stereo partly shown) [Compound I-598] |  |  | < 10 nM | < 10 nM |
| CC(F)(F)c1nc(N2CC3(CCCCC3)c3cc(OC4CCN(c5nnc(C(F)(F)F)s5)CC4)ccc32)ncc1C(=O)NC1(C(=O)O)C2CC3CC(C2)CC1C3 (stereo not shown) [Compound I-535] |  |  | < 10 nM | 10 to 100 nM |
| O=C(NC1(C(=O)O)C2CC3CC(C2)CC1C3)c1cnc(N2CC3(CCOCC3)c3cc(OC4CCN(c5ncc(F)cn5)CC4)ncc32)nc1C(F)(F)F (stereo not shown) [Compound I-402] |  |  | < 10 nM | < 10 nM |
| CC(F)(F)c1nc(N2CC3(CCOCC3)c3cc(OC4CN(c5ncc(F)cn5)C4)ccc32)ncc1C(=O)NC1(C(=O)O)C2CC3CC(C2)CC1C3 (stereo not shown) [Compound I-542] |  |  | < 10 nM | < 10 nM |
| O=C(NC1(C(=O)O)C2CC3CC(C2)CC1C3)c1cnc(N2CC3(CCOCC3)c3cc(C(=O)N4CCN(c5ncccn5)CC4)ccc32)nc1C(F)(F)F (stereo not shown) [Compound I-353] | < 10 nM | < 10 nM |  |  |
| COC[C@@H](C)n1cc(-c2ccc(C(=O)NC3(C(=O)O)C4CC5CC(C4)CC3C5)c(C(F)(F)F)n2)c2ccc(O[C@H]3CC[C@H](N4CC(F)(F)C4)CC3)cc21 (stereo partly shown) [Compound I-581] |  |  | < 10 nM | < 10 nM |
| O=C(NC1(C(=O)O)C2CC3CC(C2)CC1C3)c1ccc(-c2cn(C3CCC(F)CC3)c3cc(O[C@H]4CC[C@H](N5CC(F)(F)C5)CC4)ccc23)nc1C(F)(F)F (single isomer, unassigned) [Compound I-579] |  |  | < 10 nM | < 10 nM |
| O=C(NC1(C(=O)O)C2CC3CC(C2)CC1C3)c1ccc(-c2cn(C3COC3)c3cc(OC4CCN(c5ncccn5)CC4)ccc23)nc1C(F)(F)F (stereo not shown) [Compound I-151] |  |  | < 10 nM | < 10 nM |

| Structure (SMILES) | EC50 (RSV A2 strain) | EC50 [1] | EC50 (RSV A2 strain; [2]) | EC50 [1, 2] |
| --- | --- | --- | --- | --- |
| CC(F)(F)c1nc(N2CC3(CCOCC3)c3cc(O[C@H]4CC[C@H](Nc5ncc(F)cn5)CC4)ccc32)ncc1C(=O)NC1(C(=O)O)C2CC3CC(C2)CC1C3 (stereo partly shown) [Compound I-553] |  |  | < 10 nM | 10 to 100 nM |
| O=C(NC1(C(=O)O)C2CC3CC(C2)CC1C3)c1ccc(-c2cn(C3CC4C=CC(C3)O4)c3cc(OC4CCN(c5ncc(F)cn5)CC4)ccc23)nc1C(F)(F)F (single isomer, unassigned) [Compound I-434] |  |  | < 10 nM | < 10 nM |
| CC(F)(F)c1nc(N2CC3(CCCCC3)c3cc(O[C@H]4CC[C@H](N5CC(F)(F)C5)CC4)ncc32)ncc1C(=O)NC1(C(=O)O)C2CC3CC(C2)CC1C3 (stereo partly shown) [Compound I-555] |  |  | < 10 nM | 10 to 100 nM |
| CC(F)(F)CN1CCC(Oc2ccc3c(-c4ncc(C(=O)NC5(C(=O)O)C6CC7CC(C6)CC5C7)c(C(C)(F)F)n4)cn(C4CCOCC4)c3c2)CC1 (stereo not shown) [Compound I-612] |  |  | < 10 nM | < 10 nM |
| CC(F)(F)c1nc(N2CC3(CCOCC3)c3cc(OC4CCN(CC(F)(F)F)CC4)ccc32)ncc1C(=O)NC1(C(=O)O)C2CC3CC(C2)CC1C3 (stereo not shown) [Compound I-465] |  |  | < 10 nM | < 10 nM |
| O=C(NC1(C(=O)O)C2CC3CC(C2)CC1C3)c1cnc(N2CC3(CCC(F)(F)CC3)c3cc(OC4CCN(CC(F)(F)F)CC4)ccc32)nc1C(F)(F)F (stereo not shown) [Compound I-493] |  |  | < 10 nM | < 10 nM |
| COc1ccc2c(c1)C1(CCOCC1)CN2c1ncc(C(=O)NC2(C(=O)O)C3CC4CC(C3)CC2C4)c(C(F)(F)F)n1 (stereo not shown) [Compound I-80] | < 10 nM | < 10 nM |  |  |
| O=C(NC1(C(=O)O)C2CC3CC(C2)CC1C3)c1ccc(-c2cn(C3CCC(F)(F)CC3)c3cc(OC4CCN(CC(F)(F)F)CC4)ccc23)nc1C(F)(F)F (stereo not shown) [Compound I-511] |  |  | < 10 nM | 10 to 100 nM |
| O=C(NC1(C(=O)O)C2CC3CC(C2)CC1C3)c1cnc(N2CC3(CCCCC3)c3cc(OC4CN(c5ncc(F)cn5)C4)ccc32)nc1C(F)(F)F (stereo not shown) [Compound I-494] |  |  | < 10 nM | < 10 nM |
| O=C(NC1(C(=O)O)C2CC3CC(C2)CC1C3)c1cnc(N2CC3(CCCCC3)c3cc(C(=O)N4CCN(c5ncccn5)CC4)ccc32)nc1C(F)(F)F (stereo not shown) [Compound I-444] |  |  | < 10 nM | < 10 nM |
| CC(F)(F)c1nc(N2CC3(CCCCC3)c3cc(C(=O)N4CCN(c5ncccn5)CC4)ccc32)ncc1C(=O)NC1(C(=O)O)C2CC3CC(C2)CC1C3 (stereo not shown) [Compound I-453] |  |  | < 10 nM | < 10 nM |
| CC(C)n1cc(-c2ncc(C(=O)NC3(C(=O)O)C4CC5CC(C4)CC3C5)c(C(C)(F)F)n2)c2ccc(O[C@H]3CC[C@H](N4CC(F)(F)C4)CC3)cc21 (stereo partly shown) [Compound I-618] |  |  | < 10 nM | < 10 nM |
| O=C(NC1(C(=O)O)C2CC3CC(C2)CC1C3)c1cnc(N2CC3(CCOCC3)c3cc(OCCC4CCOCC4)ccc32)nc1C(F)(F)F (stereo not shown) [Compound I-83] | < 10 nM | < 10 nM |  |  |
| COc1ccc2c(n1)C1(CCOCC1)CN2c1ncc(C(=O)NC2(C(=O)O)C3CC4CC(C3)CC2C4)c(C(F)(F)F)n1 (stereo not shown) [Compound I-91] | < 10 nM | 10 to 100 nM |  |  |
| CC(F)(F)c1nc(N2CC3(CCCC3)c3cc(OC4CCN(CC(F)(F)F)CC4)ccc32)ncc1C(=O)NC1(C(=O)O)C2CC3CC(C2)CC1C3 (stereo not shown) [Compound I-565] |  |  | < 10 nM | < 10 nM |
| CC(F)(F)CN1CCC(Oc2ccc3c(-c4ncc(C(=O)NC5(C(=O)O)C6CC7CC(C6)CC5C7)c(C(C)(F)F)n4)cn(C4CCC(F)(F)CC4)c3c2)CC1 (stereo not shown) [Compound I-583] |  |  | < 10 nM | < 10 nM |
| CC(F)(F)CN1CCC(Oc2ccc3c(-c4ncc(C(=O)NC5(C(=O)O)C6CC7CC(C6)CC5C7)c(C(F)(F)F)n4)cn(C4CCOCC4)c3c2)CC1 (stereo not shown) [Compound I-578] |  |  | < 10 nM | < 10 nM |
| O=C(NC1(C(=O)O)C2CC3CC(C2)CC1C3)c1ccc(-c2cn(C3CC3)c3cc(O[C@H]4CC[C@H](N5CC(F)(F)C5)CC4)ccc23)nc1C(F)(F)F (stereo partly shown) [Compound I-513] |  |  | < 10 nM | < 10 nM |
| Cc1nc(-c2cn(C3CCOCC3)c3cc(OC4CCN(c5ncccn5)CC4)ccc23)nc(C(F)(F)F)c1C(=O)NC1(C(=O)O)C2CC3CC(C2)CC1C3 (stereo not shown) [Compound I-245] |  |  | < 10 nM | < 10 nM |

Reference: patent US12528790B2, “Amide derivative having antiviral activity” (Shionogi & Co., Ltd., priority 2020, dated 2026)
